This assay addresses Tyrosine-protein kinase BTK (Homo sapiens, UniProt Q06187). As to the kind of experiment: Phosphorylation reactions were allowed to proceed for 120 minutes. […] After 60 minutes incubation with detection reagents, reaction plates were read on a PerkinElmer EnVision plate reader using standard TR-FRET protocol. […] IC50 values were determined by 4 parameter robust fit of TR-FRET ratio values vs. (Log10) compound concentrations. Background: TR-FRET usually uses a lanthanide donor and a delayed reading to cut background.

Tyrosine-protein kinase BTK, sequence (Q06187 whole entry): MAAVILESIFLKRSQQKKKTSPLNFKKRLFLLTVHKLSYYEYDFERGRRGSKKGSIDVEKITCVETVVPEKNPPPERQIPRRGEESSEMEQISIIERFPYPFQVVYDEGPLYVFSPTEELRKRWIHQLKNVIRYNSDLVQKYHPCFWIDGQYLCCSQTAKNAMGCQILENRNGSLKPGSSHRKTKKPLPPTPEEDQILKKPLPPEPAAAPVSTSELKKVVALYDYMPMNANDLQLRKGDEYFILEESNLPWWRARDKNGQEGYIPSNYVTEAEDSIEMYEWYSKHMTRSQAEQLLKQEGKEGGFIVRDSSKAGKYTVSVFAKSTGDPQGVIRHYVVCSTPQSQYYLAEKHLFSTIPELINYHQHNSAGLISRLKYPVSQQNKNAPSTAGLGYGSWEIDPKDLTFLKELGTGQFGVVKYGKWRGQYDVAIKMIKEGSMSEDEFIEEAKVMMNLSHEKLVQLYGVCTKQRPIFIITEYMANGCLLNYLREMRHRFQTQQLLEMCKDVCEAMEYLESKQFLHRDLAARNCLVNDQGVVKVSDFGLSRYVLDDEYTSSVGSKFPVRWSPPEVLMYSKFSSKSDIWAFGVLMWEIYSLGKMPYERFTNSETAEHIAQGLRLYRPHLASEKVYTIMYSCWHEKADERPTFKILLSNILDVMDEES

What is called IC50 is the point on the concentration scale where inhibition reaches its midpoint. Regarding `CC(=O)N1CCC[C@@H](c2nc(-c3ccc(C(=O)Nc4cc(C)ccn4)cc3)c3c(N)nccn23)C1`, the IC50 was below 10 nM.

These data come from ChEMBL document CHEMBL5725558, “BTK Inhibitors” (2017).
